Data reported in ChEMBL document CHEMBL4229407, “Optimization and in vivo evaluation of pyrazolopyridines as a potent and selective PI3Kδ inhibitor” (Bioorg Med Chem, 2018).

Experiments:
[1] = target: PI3-kinase p110-delta/p85-alpha (Homo sapiens, UniProt O00329); assay: Inhibition of recombinant human full length N-terminal His6-tagged PI3K p110delta/p85alpha expressed in baculovirus infected Sf21 cells using PIP2 as substrate after 35 to 40 mins by HTRF assay
[2] = species: Homo sapiens; assay: Selectivity ratio of IC50 for recombinant human full length N-terminal His6-tagged PI3K p110alpha/p85alpha expressed in baculovirus infected Sf21 cells to IC50 for recombinant human full length N-terminal His6-tagged PI3K p110delta/p85alpha expressed in baculovirus infected Sf21 cells
[3] = Aqueous solubility in pH 6.8 solution at 130 uM after 20 hrs by liquid chromatography method; format: physicochemical; details: aqueous pH 6.8 solution
[4] = species: Homo sapiens; assay: Selectivity ratio of IC50 for recombinant human full length N-terminal His6-tagged PI3K p110beta/p85alpha expressed in baculovirus infected Sf21 cells to IC50 for recombinant human full length N-terminal His6-tagged PI3K p110delta/p85alpha expressed in baculovirus infected Sf21 cells
[5] = species: Homo sapiens; assay: Selectivity ratio of IC50 for recombinant human full length N-terminal His6-tagged PI3K p120gamma expressed in baculovirus infected Sf21 cells to IC50 for recombinant human full length N-terminal His6-tagged PI3K p110delta/p85alpha expressed in baculovirus infected Sf21 cells
[6] = Intrinsic clearance in CD-1 mouse liver microsomes at 0.2 uM up to 45 mins in presence of NADPH by LC-MS/MS analysis; format: ADME, microsome; details: read-out: CLH
[7] = Permeability of the compound at 50 uM after 2 hrs by HPLC based PAMPA; format: ADME; details: read-out: permeability
[8] = target: T1, Cytochrome P450 1A2 (Homo sapiens, UniProt P05177); assay: Inhibition of CYP1A2 in human liver microsomes at 5 uM using phenacetin as substrate after 20 mins in presence of NADPH by LC-MS/MS analysis; format: ADME
T1 sequence (P05177 whole entry): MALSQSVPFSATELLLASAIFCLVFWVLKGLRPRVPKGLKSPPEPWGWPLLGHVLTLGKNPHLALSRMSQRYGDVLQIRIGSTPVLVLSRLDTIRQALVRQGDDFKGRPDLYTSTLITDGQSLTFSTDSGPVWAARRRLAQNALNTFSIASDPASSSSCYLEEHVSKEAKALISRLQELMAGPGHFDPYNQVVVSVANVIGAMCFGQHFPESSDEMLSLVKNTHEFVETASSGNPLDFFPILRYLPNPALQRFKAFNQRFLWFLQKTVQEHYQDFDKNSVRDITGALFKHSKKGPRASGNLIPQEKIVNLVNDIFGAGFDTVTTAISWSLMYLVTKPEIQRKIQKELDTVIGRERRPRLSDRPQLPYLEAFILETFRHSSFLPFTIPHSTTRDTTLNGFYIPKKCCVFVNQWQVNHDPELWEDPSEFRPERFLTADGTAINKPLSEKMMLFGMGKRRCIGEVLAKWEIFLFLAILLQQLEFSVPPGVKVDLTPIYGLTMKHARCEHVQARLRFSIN

[9] = target: T2, Cytochrome P450 2C8 (Homo sapiens, UniProt P10632); assay: Inhibition of CYP2C8 in human liver microsomes at 5 uM using amodiaquine as substrate after 20 mins in presence of NADPH by LC-MS/MS analysis; format: ADME
T2 sequence (P10632 whole entry): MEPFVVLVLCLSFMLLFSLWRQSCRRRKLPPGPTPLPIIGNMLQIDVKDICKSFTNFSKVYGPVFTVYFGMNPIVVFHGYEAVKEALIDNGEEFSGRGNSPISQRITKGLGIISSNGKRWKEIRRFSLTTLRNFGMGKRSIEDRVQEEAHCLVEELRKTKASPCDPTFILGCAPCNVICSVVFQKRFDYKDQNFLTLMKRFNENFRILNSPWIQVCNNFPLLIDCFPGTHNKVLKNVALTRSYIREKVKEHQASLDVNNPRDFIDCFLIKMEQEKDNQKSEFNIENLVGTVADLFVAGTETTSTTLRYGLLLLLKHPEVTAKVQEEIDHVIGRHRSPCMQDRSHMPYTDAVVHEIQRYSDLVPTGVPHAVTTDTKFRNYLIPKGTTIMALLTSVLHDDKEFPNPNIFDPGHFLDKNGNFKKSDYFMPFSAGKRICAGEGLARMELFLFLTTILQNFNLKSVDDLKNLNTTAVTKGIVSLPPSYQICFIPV

[10] = target: Cytochrome P450 2C9 (Homo sapiens, UniProt P11712); assay: Inhibition of CYP2C9 in human liver microsomes at 5 uM using diclofenac as substrate after 20 mins in presence of NADPH by LC-MS/MS analysis; format: ADME
Cytochrome P450 2C9, sequence (P11712 whole entry): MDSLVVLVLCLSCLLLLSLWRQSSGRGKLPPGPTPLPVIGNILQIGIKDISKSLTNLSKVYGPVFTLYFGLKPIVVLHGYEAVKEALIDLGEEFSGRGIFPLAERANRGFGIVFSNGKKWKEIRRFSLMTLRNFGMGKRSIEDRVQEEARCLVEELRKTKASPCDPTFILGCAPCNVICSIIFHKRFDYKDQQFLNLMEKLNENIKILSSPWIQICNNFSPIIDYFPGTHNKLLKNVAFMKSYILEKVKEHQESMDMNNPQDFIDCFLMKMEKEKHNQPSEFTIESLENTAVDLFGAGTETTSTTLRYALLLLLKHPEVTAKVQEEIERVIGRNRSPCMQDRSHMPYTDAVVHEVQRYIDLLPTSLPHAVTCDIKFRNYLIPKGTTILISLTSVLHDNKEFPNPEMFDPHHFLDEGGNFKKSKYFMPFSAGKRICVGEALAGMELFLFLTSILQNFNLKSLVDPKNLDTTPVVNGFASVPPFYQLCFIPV

[11] = target: Cytochrome P450 2C19 (Homo sapiens, UniProt P33261); assay: Inhibition of CYP2C19 in human liver microsomes at 5 uM using S-mephenytoin as substrate after 20 mins in presence of NADPH by LC-MS/MS analysis; format: ADME
Cytochrome P450 2C19, sequence (P33261 whole entry): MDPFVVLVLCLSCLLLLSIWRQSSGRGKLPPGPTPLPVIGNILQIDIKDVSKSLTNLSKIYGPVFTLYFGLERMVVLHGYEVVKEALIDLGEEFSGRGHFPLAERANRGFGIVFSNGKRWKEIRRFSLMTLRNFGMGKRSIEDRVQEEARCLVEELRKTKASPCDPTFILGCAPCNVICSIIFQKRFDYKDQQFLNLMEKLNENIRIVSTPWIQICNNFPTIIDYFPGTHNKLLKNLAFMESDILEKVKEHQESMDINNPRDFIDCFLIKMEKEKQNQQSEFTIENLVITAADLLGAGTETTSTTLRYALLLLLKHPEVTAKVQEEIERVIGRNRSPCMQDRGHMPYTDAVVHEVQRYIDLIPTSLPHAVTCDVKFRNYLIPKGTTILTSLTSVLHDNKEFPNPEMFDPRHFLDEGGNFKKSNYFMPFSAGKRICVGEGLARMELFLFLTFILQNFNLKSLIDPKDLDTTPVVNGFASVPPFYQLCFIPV

[12] = target: Cytochrome P450 2D6 (Homo sapiens, UniProt P10635); assay: Inhibition of CYP2D6 in human liver microsomes at 5 uM using dextromethorphan as substrate after 20 mins in presence of NADPH by LC-MS/MS analysis; format: ADME
Cytochrome P450 2D6, sequence (P10635 whole entry): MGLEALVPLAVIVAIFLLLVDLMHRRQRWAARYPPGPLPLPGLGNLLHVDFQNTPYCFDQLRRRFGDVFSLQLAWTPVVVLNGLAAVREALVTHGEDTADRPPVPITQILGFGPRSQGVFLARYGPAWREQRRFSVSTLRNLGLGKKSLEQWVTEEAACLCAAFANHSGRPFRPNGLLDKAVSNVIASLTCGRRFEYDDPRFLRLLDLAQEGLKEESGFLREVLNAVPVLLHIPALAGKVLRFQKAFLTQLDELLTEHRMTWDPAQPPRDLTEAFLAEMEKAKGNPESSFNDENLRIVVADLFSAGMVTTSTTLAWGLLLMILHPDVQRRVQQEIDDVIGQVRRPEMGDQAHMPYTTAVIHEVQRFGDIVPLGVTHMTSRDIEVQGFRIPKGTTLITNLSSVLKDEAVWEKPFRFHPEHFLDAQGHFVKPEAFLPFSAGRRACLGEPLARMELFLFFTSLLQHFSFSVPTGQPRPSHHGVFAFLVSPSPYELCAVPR

[13] = target: Cytochrome P450 3A4 (Homo sapiens, UniProt P08684); assay: Inhibition of CYP3A4 in human liver microsomes at 5 uM using midazolam as substrate after 20 mins in presence of NADPH by LC-MS/MS analysis; format: ADME
Cytochrome P450 3A4, sequence (P08684 whole entry): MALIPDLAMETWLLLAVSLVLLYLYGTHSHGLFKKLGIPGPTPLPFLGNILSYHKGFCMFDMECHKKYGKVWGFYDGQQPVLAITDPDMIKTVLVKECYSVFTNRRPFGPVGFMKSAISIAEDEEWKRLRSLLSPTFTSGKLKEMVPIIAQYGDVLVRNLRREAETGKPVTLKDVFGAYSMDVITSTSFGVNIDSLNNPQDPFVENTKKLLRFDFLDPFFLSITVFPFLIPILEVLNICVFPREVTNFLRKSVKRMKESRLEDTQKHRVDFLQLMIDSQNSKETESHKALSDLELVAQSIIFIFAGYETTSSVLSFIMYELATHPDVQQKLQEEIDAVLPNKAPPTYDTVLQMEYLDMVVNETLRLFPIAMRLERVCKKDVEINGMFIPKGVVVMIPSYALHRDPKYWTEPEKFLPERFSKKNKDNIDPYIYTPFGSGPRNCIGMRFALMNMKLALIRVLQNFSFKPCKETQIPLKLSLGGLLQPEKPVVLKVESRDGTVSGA

[14] = Total clearance in Balb/c mouse at 1 mg/kg, iv or 3 mg/kg, po by LC-MS/MS analysis; format: ADME, organism-based; details: in vivo
[15] = Volume of distribution at steady state in Balb/c mouse at 1 mg/kg, iv or 3 mg/kg, po by LC-MS/MS analysis; format: ADME, organism-based; details: in vivo, read-out: Vdss
[16] = Half life in Balb/c mouse at 1 mg/kg, iv or 3 mg/kg, po by LC-MS/MS analysis; format: ADME, organism-based; details: in vivo
[17] = Cmax in Balb/c mouse at 1 mg/kg, iv or 3 mg/kg, po by LC-MS/MS analysis; format: ADME, organism-based; details: in vivo
[18] = Tmax in Balb/c mouse at 1 mg/kg, iv or 3 mg/kg, po by LC-MS/MS analysis; format: ADME, organism-based; details: in vivo
[19] = AUC (0 to 24 hrs) in Balb/c mouse at 1 mg/kg, iv or 3 mg/kg, po by LC-MS/MS analysis; format: ADME, organism-based; details: in vivo
[20] = Fraction unbound in mouse plasma at 2 uM after 6 hrs by LC-MS/MS based equilibrium dialysis method; format: ADME, cell-free
[21] = Oral bioavailability in Balb/c mouse at 3 mg/kg by LC-MS/MS analysis; format: ADME, organism-based; details: in vivo
[22] = tested on: Mus musculus; assay: In vivo inhibition of PI3Kdelta in Balb/c mouse assessed as reduction in trinitrophenylated aminoethylcarboxymethyl-Ficoll-induced antibody production in plasma administered orally twice daily measured on day 4 by ELISA; format: functional, organism-based
[23] = tested on: Mus musculus; assay: In vivo inhibition of PI3Kdelta in Balb/c mouse assessed as reduction in trinitrophenylated aminoethylcarboxymethyl-Ficoll-induced antibody production in plasma at 2 mg/kg, po administered twice daily measured on day 4 by ELISA relative to control; format: functional; details: 96 h
[24] = tested on: Mus musculus; assay: In vivo inhibition of PI3Kdelta in Balb/c mouse assessed as reduction in trinitrophenylated aminoethylcarboxymethyl-Ficoll-induced antibody production in plasma at 1 mg/kg, po administered twice daily measured on day 4 by ELISA relative to control; format: functional; details: 96 h
[25] = tested on: Mus musculus; assay: In vivo inhibition of PI3Kdelta in Balb/c mouse assessed as reduction in trinitrophenylated aminoethylcarboxymethyl-Ficoll-induced antibody production in plasma at 0.5 mg/kg, po administered twice daily measured on day 4 by ELISA relative to control; format: functional; details: 96 h
[26] = Metabolic stability in CD-1 mouse liver microsomes at 0.2 uM up to 45 mins in presence of NADPH by LC-MS/MS analysis; format: ADME, microsome; details: 0.75 h

PI3-kinase p110-delta/p85-alpha, sequence (P27986 whole entry): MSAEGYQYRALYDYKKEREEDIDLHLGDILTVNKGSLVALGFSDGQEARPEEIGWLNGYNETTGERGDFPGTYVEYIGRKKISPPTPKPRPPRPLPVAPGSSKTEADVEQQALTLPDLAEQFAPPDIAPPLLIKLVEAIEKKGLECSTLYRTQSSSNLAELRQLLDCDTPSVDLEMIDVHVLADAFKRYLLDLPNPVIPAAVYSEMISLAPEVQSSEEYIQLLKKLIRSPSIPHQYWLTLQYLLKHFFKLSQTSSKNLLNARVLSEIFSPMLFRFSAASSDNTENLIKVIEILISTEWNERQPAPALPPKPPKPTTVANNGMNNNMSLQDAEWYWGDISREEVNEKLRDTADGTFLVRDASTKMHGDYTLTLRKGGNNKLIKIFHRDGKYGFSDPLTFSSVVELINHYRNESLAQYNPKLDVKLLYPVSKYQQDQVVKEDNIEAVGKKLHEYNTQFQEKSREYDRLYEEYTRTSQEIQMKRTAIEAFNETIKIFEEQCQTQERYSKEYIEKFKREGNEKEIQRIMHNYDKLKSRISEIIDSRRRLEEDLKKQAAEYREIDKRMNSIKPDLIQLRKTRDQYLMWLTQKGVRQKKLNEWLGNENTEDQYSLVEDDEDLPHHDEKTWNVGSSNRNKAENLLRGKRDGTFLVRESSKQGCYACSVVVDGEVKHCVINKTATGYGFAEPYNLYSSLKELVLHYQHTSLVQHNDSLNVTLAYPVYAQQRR
PI3-kinase p110-delta/p85-alpha, sequence (O00329 whole entry): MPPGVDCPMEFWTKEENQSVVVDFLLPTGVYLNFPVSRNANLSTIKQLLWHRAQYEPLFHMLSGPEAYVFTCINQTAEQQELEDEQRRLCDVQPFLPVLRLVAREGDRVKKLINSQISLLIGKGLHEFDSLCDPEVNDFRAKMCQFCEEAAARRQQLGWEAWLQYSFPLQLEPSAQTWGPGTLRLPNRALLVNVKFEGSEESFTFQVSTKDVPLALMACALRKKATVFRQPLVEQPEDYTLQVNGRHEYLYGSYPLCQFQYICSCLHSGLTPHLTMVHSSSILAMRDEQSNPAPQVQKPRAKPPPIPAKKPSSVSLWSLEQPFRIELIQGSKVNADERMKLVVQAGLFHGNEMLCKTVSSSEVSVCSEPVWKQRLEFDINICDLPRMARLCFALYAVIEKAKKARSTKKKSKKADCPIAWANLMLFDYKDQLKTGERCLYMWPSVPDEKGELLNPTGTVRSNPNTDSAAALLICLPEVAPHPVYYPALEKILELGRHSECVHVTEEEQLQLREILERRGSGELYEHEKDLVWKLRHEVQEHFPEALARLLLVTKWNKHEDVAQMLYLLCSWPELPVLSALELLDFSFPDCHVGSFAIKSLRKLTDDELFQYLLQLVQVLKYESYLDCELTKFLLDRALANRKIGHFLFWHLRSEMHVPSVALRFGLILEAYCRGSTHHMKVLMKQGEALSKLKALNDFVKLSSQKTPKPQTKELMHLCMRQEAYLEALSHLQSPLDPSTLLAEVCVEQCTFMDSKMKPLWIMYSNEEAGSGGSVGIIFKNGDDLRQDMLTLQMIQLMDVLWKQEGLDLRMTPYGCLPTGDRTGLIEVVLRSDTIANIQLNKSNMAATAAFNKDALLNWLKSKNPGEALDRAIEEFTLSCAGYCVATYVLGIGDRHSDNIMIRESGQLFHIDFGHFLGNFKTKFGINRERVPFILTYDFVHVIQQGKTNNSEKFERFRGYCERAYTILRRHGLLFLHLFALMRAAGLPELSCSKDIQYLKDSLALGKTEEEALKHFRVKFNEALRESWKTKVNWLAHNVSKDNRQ

Compound: COc1ncc(-c2cc(OC[C@@H]3CCCN(C(=O)c4cccnn4)C3)c3cnn(C)c3n2)cc1NS(C)(=O)=O
- IC50 [1]: 7.3 nM
- Ratio IC50 [2]: 35

Compound: COc1ncc(-c2cc(OC[C@@H]3CCCN(C(=O)C4CCN(C(C)=O)CC4)C3)c3cnn(C)c3n2)cc1NS(C)(=O)=O
- IC50 [1]: 4.6 nM
- Ratio IC50 [2]: 260

Compound: COc1ncc(-c2cc(OC3CN(C(=O)C4CCOCC4)C3)c3cnn(C)c3n2)cc1NS(C)(=O)=O
- IC50 [1]: 63 nM
- Ratio IC50 [2]: 3.7

Compound: COc1ncc(-c2cc(OC[C@@H]3CCCN(CCC4CCOCC4)C3)c3cnn(C)c3n2)cc1NS(C)(=O)=O
- solubility at 20 h, 130 µM [3]: ≥ 100 µM
- IC50 [1]: 1.3 nM
- Ratio IC50 [2]: 430
- Ratio IC50 [4]: 660
- Ratio IC50 [5]: 3600
- CLint scaled at 0.2 µM [6]: 88 mL/min/kg
- Papp at 2 h, 50 µM [7]: 22 ×10⁻⁶ cm/s
- inhibition (INH) [8]: Not Active
- inhibition (INH) [9]: Not Active
- inhibition (INH) [10]: Not Active
- inhibition (INH) [11]: Not Active
- inhibition (INH) [12]: Not Active
- inhibition (INH) [13]: Not Active
- clearance [14]: 25.5 mL/min/kg
- Vd [15]: 5.64 L/kg
- half-life [16]: 158 min
- Cmax [17]: 230 ng/mL
- Tmax [18]: 30 min
- AUC(0-t) [19]: 1420 ng·h/mL
- fraction unbound at 6 h, 2 µM [20]: 0.23
- bioavailability [21]: 73%
- inhibition [22]: Dose-dependent effect
- inhibition in vivo at 2 mg/kg [23]: 83%
- inhibition in vivo at 1 mg/kg [24]: 68%
- inhibition in vivo at 0.5 mg/kg [25]: 56%

Compound: COc1ncc(-c2cc(OC[C@H]3CCCN(C(=O)C4CCOCC4)C3)c3cnn(C)c3n2)cc1NS(C)(=O)=O
- IC50 [1]: 30 nM
- Ratio IC50 [2]: 6.6

Compound: COc1ncc(-c2cc(OC[C@@H]3CCCN(C(=O)CC4CCOC4)C3)c3cnn(C)c3n2)cc1NS(C)(=O)=O (stereo partly specified)
- IC50 [1]: 4.8 nM
- Ratio IC50 [2]: 210

Compound: COc1ncc(-c2cc(OC[C@@H]3CCCN(C(=O)C4CCN(CCC(F)(F)F)CC4)C3)c3cnn(C)c3n2)cc1NS(C)(=O)=O
- IC50 [1]: 41 nM
- Ratio IC50 [2]: 38

Compound: COc1ncc(-c2cc(OC[C@@H]3CCCN(CC4(C)COC4)C3)c3cnn(C)c3n2)cc1NS(C)(=O)=O
- IC50 [1]: 1.8 nM
- Ratio IC50 [2]: 570
- CLint scaled at 0.2 µM [6]: 910 mL/min/kg

Compound: COc1ncc(-c2cc(OC[C@@H]3CCCN(C(=O)C4CCOCC4)C3)c3cnn(C)c3n2)cc1NS(C)(=O)=O
- IC50 [1]: 3.9 nM
- Ratio IC50 [2]: 39
- Ratio IC50 [4]: 1300
- Ratio IC50 [5]: 490

Compound: COc1ncc(-c2cc(O[C@@H]3CCN(C(=O)C4CCOCC4)C3)c3cnn(C)c3n2)cc1NS(C)(=O)=O
- Stability [26]: Stable
- inhibition in vivo at 2 mg/kg [23]: 32%
- inhibition in vivo at 1 mg/kg [24]: -2%

Compound: COc1ncc(-c2cc(OC[C@@H]3CCCN(Cc4cn(C)nc4C)C3)c3cnn(C)c3n2)cc1NS(C)(=O)=O
- IC50 [1]: 3.2 nM
- Ratio IC50 [2]: 730
- CLint scaled at 0.2 µM [6]: > 1000 mL/min/kg

Compound: COc1ncc(-c2cc(OC[C@@H]3CCCN(Cc4c(C)nn(C)c4C)C3)c3cnn(C)c3n2)cc1NS(C)(=O)=O
- IC50 [1]: 1.4 nM
- Ratio IC50 [2]: 780
- CLint scaled at 0.2 µM [6]: > 1000 mL/min/kg

Compound: COc1ncc(-c2cc(O[C@H]3CC[C@H](NC(=O)C4CCOCC4)CC3)c3cnn(C)c3n2)cc1NS(C)(=O)=O
- IC50 [1]: 150 nM

Compound: COc1ncc(-c2cc(O[C@@H]3CCN(Cc4c(C)nn(C)c4C)C3)c3cnn(C)c3n2)cc1NS(C)(=O)=O
- CLint scaled at 0.2 µM [6]: 620 mL/min/kg
- inhibition in vivo at 2 mg/kg [23]: 37%

Compound: COc1ncc(-c2cc(OC[C@@H]3CCCN(CC4CCOCC4)C3)c3cnn(C)c3n2)cc1NS(C)(=O)=O
- IC50 [1]: 0.79 nM
- Ratio IC50 [2]: 87
- Ratio IC50 [4]: 890
- Ratio IC50 [5]: 3200
- CLint scaled at 0.2 µM [6]: 340 mL/min/kg
